{
  "source": "patent US20060188937A1",
  "about": "“G-protein estrogen membrane receptor” (Board Of Regents, The University Of Texas System, priority 2004, published 2006)",
  "key": {"[1]": {"system": "untransfected HEK293 cells", "test": "cAMP measurement, untransfected HEK293 cells", "format": "biochemical, human", "settings": "15 min treatment with 200 nm"}, "[2]": {"target": "T1, wild-type GPR30 (Homo sapiens, UniProt Q99527)", "T1 construct": "membranes of SKBR3 cells expressing wild-type GPR30; endogenous in cells; host or cells: SKBR3 (human breast cancer cells, ATCC)", "T1 sequence (Q99527 whole entry)": "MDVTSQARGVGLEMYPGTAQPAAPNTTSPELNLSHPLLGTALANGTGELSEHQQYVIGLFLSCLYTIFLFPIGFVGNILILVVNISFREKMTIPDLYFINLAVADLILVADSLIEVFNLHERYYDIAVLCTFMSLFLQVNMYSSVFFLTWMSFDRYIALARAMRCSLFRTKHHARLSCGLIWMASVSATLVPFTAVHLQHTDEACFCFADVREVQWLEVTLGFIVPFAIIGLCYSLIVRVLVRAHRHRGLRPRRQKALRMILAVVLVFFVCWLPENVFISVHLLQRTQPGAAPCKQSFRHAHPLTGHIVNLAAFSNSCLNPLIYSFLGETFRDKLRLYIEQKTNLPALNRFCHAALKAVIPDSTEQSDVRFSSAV", "test": "[35S]GTPγS binding to membranes of SKBR3 cells", "format": "biochemical", "settings": "for agonist action on GPR30 / mER-mediated pathway: summary statements; for specific [35S]GTPγS binding (activation of G-proteins): 100 nm, SKBR3 cell membranes", "method": "[^35S]GTPγ-S binding to cell membranes. Binding of [^35S]GTPγ-S to plasma membranes (˜10 μg protein) was assayed following the procedure of Liu and Dillon (30) with few modifications. […] Nonspecific binding was determined by addition of 100 μM GTPγ-S. At the end of the incubation period 100 μl aliquots were filtered through Whatman GF/B glass fiber filters, followed by several washes and subsequent scintillation counting."}, "[3]": {"target": "T2, GPR30 (Homo sapiens, UniProt Q99527)", "T2 sequence (Q99527 whole entry)": "as above", "test": "cAMP measurement (adenylyl cyclase activity), HEK293 cells transfected with GPR30", "format": "biochemical", "settings": "for cAMP production / activation of stimulatory G-protein and upregulation of adenylyl cyclase activity: transfected cells; for cAMP production: FIG. 3F, 100 nm, 20 min; for activation of stimulatory G-protein and upregulation of adenylyl cyclase activity: discussion summary"}, "[4]": {"target": "T2, GPR30", "settings": "for binding affinities to the receptor: summary statement; for affinity for the receptor in competitive binding: concentrations up to 1 μM"}, "[5]": {"target": "T2, GPR30", "test": "Competitive binding against [3H]E2, plasma membranes of HEK293 cells transfected with GPR30"}, "[6]": {"system": "untransfected HEK293 cells", "test": "[35S]GTPγS binding to membranes of untransfected HEK293 cells", "format": "biochemical, human", "settings": "100 nm", "method": "[^35S]GTPγ-S binding to cell membranes. Binding of [^35S]GTPγ-S to plasma membranes (˜10 μg protein) was assayed following the procedure of Liu and Dillon (30) with few modifications. Plasma membranes were incubated with 10 μM GDP and 0.5 nm [^35S]GTPγ-S (˜12,000 cpm, 1.0 Ci/mol) in […] Tris buffer ([…], 5 mM MgCl2, 1 mM CaCl2, 0.6 mM EDTA, 0.1% BSA, 50 mM Tris-HCl, pH 7.4) at 25° C. for 30 min in the presence of 100 nm of the test compounds. Nonspecific binding was determined by addition of 100 μM GTPγ-S. At the end of the incubation period 100 μl aliquots were filtered through Whatman GF/B glass fiber filters, followed by several washes and subsequent scintillation counting."}, "[7]": {"system": "SKBR3 cells", "settings": "cited from earlier work"}, "[8]": {"system": "SKBR3 cells", "test": "Hormone pretreatment of SKBR3 cells, E2 receptor binding to plasma membranes", "format": "cell-based, human", "settings": "200 nm for 16 hrs in FBS-free media"}},
  "note": "Entries after “also recorded” stand apart in the source; their conditions may differ.",
  "data": [
    {"compound": "C[C@]12CC[C@@H]3c4ccc(O)cc4C[C@@H](CCCCCCCCC[S+]([O-])CCCC(F)(F)C(F)(F)F)[C@H]3[C@@H]1CC[C@@H]2O", "note": "(stereo partly shown) [ICI 182, 780]", "values": [
      {"measurement": "adenylyl cyclase activity, increase in cAMP content", "setting": "[1]", "value": "not in untransfected cells"},
      {"measurement": "agonist action on GPR30 / mER-mediated pathway", "setting": "[2]", "value": "estrogen agonists"},
      {"measurement": "agonist action on GPR30 / mER-mediated pathway", "setting": "[2]; listed as ICI 182,780", "value": "mimic the actions of E2"},
      {"measurement": "adenylyl cyclase activity, increase in cAMP content", "setting": "[3]; transfected HEK293 cells, 15 min treatment with 200 nm", "value": "significantly increased"},
      {"measurement": "cAMP production", "setting": "[3]", "value": "significantly increased cAMP"},
      {"measurement": "relative binding affinity (RBA), % that of E2", "setting": "[4]; SKBR3 membranes", "value": "approximately 10%"},
      {"measurement": "decrease in RBA to GPR30 versus estradiol-17β", "setting": "[4]; discussion summary", "value": "only minor decreases"},
      {"measurement": "binding affinities to the receptor", "setting": "[4]", "value": "high binding affinities"},
      {"measurement": "binding affinity in competitive binding", "setting": "[5]", "value": "significant binding affinity"}
    ]},
    {"compound": "C[C@]12CCC(=O)C=C1CC[C@@H]1[C@@H]2[C@@H](O)C[C@@]2(C)[C@H]1CC[C@]2(O)C(=O)CO", "note": "[cortisol]", "values": [
      {"measurement": "affinity for the receptor in competitive binding", "setting": "[4]; SKBR3 membranes", "value": "no affinity"}
    ]},
    {"compound": "CC/C(=C(\\c1ccccc1)c1ccc(OCCN(C)C)cc1)c1ccccc1", "note": "[tamoxifen]", "values": [
      {"measurement": "specific [35S]GTPγS binding (activation of G-proteins)", "setting": "[2]", "value": "significantly increased"},
      {"measurement": "agonist action on GPR30 / mER-mediated pathway", "setting": "[2]", "value": "estrogen agonists; also recorded: mimic the actions of E2"},
      {"measurement": "cAMP production", "setting": "[3]", "value": "significantly increased cAMP"},
      {"measurement": "binding affinity in competitive binding", "setting": "[5]", "value": "significant binding affinity"}
    ]},
    {"compound": "C[C@]12CC[C@@H]3c4ccc(O)cc4CC[C@H]3[C@@H]1CCC2=O", "note": "[estrone]", "values": [
      {"measurement": "activation of stimulatory G-protein and upregulation of adenylyl cyclase activity", "setting": "[3]", "value": "inactive"}
    ]},
    {"compound": "C[C@H]1CCCC(=O)CCC/C=C/c2cc(O)cc(O)c2C(=O)O1", "note": "[zearalonone, zearalenone]", "values": [
      {"measurement": "binding affinity in competitive binding", "setting": "[5]", "value": "significant binding affinity"}
    ]},
    {"compound": "CC/C(=C(/CC)c1ccc(O)cc1)c1ccc(O)cc1", "note": "[diethystilbestrol, diethylstilbestrol]", "values": [
      {"measurement": "displacement of [3H]E2", "setting": "[5]; concentrations up to 10 μM", "value": "failed to significantly displace"}
    ]},
    {"compound": "cholera toxin", "values": [
      {"measurement": "effect on estrogen-induced increase in cAMP concentrations", "setting": "[3]", "value": "blocked"}
    ]},
    {"compound": "C[C@]12CC[C@H]3[C@@H](CCC4=CC(=O)CC[C@@]43C)[C@@H]1CC[C@@H]2O", "note": "[testosterone]", "values": [
      {"measurement": "affinity for the receptor in competitive binding", "setting": "[4]; SKBR3 membranes", "value": "no affinity"}
    ]},
    {"compound": "ClC(Cl)=C(c1ccc(Cl)cc1)c1ccccc1Cl", "note": "[o,p′-DDE]", "values": [
      {"measurement": "specific [35S]GTPγS binding (activation of G-proteins)", "setting": "[2]", "value": "significantly increased"},
      {"measurement": "agonist action on GPR30 / mER-mediated pathway", "setting": "[2]", "value": "agonist; also recorded: mimic the actions of E2"},
      {"measurement": "cAMP production", "setting": "[3]", "value": "significantly increased cAMP"},
      {"measurement": "displacement of [3H]-E2 binding", "setting": "[4]; SKBR3 membranes, concentrations 0.1-1 μM", "value": "significant displacement"},
      {"measurement": "binding affinities to the receptor", "setting": "[4]", "value": "high binding affinities"},
      {"measurement": "binding affinity in competitive binding", "setting": "[5]", "value": "significant binding affinity"}
    ]},
    {"compound": "C[C@]12CC[C@@H]3c4ccc(O)cc4CC[C@H]3[C@@H]1CC[C@@H]2O", "note": "[E2, 17β-estradiol]", "values": [
      {"measurement": "adenylyl cyclase activity, increase in cAMP content", "setting": "[1]", "value": "not in untransfected cells"},
      {"measurement": "specific [35S]GTPγS binding", "setting": "[6]", "value": "not to membranes of untransfected cells"},
      {"measurement": "effective concentration (cAMP) previously shown", "setting": "[7]", "value": 1, "unit": "nm"},
      {"measurement": "increase in receptor binding", "setting": "[8]", "value": 2.5, "unit": "fold"}
    ]},
    {"compound": "C[C@]12CC[C@@H]3c4ccc(O)cc4CC[C@H]3[C@@H]1C[C@@H](O)[C@@H]2O", "note": "[estriol]", "values": [
      {"measurement": "specific [35S]GTPγS binding (activation of G-proteins)", "setting": "[2]", "value": "failed to activate the G-proteins"},
      {"measurement": "cAMP production", "setting": "[3]", "value": "did not alter cAMP production"},
      {"measurement": "activation of stimulatory G-protein and upregulation of adenylyl cyclase activity", "setting": "[3]", "value": "inactive"}
    ]},
    {"compound": "CC(=O)[C@H]1CC[C@H]2[C@@H]3CCC4=CC(=O)CC[C@]4(C)[C@H]3CC[C@]12C", "note": "[P4, progesterone]", "values": [
      {"measurement": "affinity for the receptor in competitive binding", "setting": "[4]; SKBR3 membranes", "value": "no affinity"},
      {"measurement": "increase in receptor binding", "setting": "[8]", "value": 9, "unit": "fold"}
    ]}
  ]
}
